We go through three molecules from ChEMBL document CHEMBL1201862, “PubChem BioAssay data set” (2004).

Structures are written as SMILES. Activity calls are given as the source filed them.

Test [1] concerns HEK293. The test can be described thus: inhibitors of LMP1-driven NF-kB reporter, dose response, cell-based, HEK293, luciferase, cherry-pick (AID 588343). It counts as functional. The note with it: Homo sapiens.
Test [2] in a line: Shn3 3'UTR reporter inhibitors, dose response, cell-based, Clone20 osteoblasts, firefly luciferase, cherry-picked (AID 624132).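 Further: firefly luciferase luminescence from reporter carrying the Shn3 3'UTR in osteoblasts.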 It counts as functional.
The next test relates to Jurkat. Put plainly: SAR Analysis of small molecule inhibitors of T-cell specific antigen receptor-induced NF-kB activation in a Jurkat cell line using a luminescence assay - Set 2. [Related pubchem assays (depositor defined):AID435003, AID435012, AID465]. It counts as functional, cell-based. The conditions noted are these: Homo sapiens.
Test [3] addresses Latent membrane protein 1 (Human herpesvirus 4 (strain B95-8), UniProt P03230). The test can be described thus: TES1-eGFP NF-kB reporter inhibition versus Tet-On dsRED, dose response, selectivity assay for LMP1 NF-kB inhibitor project, imaging, HEK293T, dual-color eGFP/dsRED, cherry-picks (AID 588398). It counts as functional, cell-based.
Test [4] can be described thus: control 3'UTR Renilla luciferase suppression, dose response, counter-screen for Shn3 inhibitor project, cell-based, Clone20-Shn3RL, cherry-picked (AID 624133). It counts as functional.
Test [5] concerns HEK293. The test can be described thus: SAR Analysis of small molecule inhibitors of T-cell specific antigen receptor-induced NF-kB activation in a HEK-293T cell line using a luminescence assay - Set 2. [Related pubchem assays (depositor defined):AID435003, AID435012, AID489026]. The note with it: Homo sapiens. It counts as functional, cell-based.
The nature of test [6]: HepG2 cell cytotoxicity, dose response, cytotoxicity control for Shn3 inhibitor project, CellTiter-Glo, cherry-picked (AID 624134). It counts as functional, cell-based.
Test [7] concerns HEK293. Put plainly: cytotoxicity in HEK293T NF-kB-Luc cells, SAR follow-up, cytotoxicity control for NF-kB activator project, cell-based, resazurin fluorescence (AID 493251). It counts as functional. The note with it: Homo sapiens.
Test [8] addresses Eukaryotic translation initiation factor 4E (Mus musculus, UniProt P63073). The test can be described thus: eIF4E–eIF4G protein interaction inhibitors, dose response, biochemical, TR-FRET (AID 855).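 Further: potency for disrupting eIF4E binding to eIF4GI seen as loss of FRET.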 It counts as functional.
Test [9] is described as follows: C. albicans growth with fluconazole, confirmation, fluorescence, retest (AID 2467). It counts as functional, cell-based.
A short description of test [10]: NIH-3T3 fibroblast cytotoxicity, dose response, cytotoxicity control, cell-based, fluorescence, Alamar Blue, secondary assay (AID 2327).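 Further: NIH-3T3 mouse fibroblasts cultured with fluconazole at 8 µg/mL.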 It counts as functional.
Test [11] deals with T1, Histone-lysine N-methyltransferase NSD2 (Homo sapiens, UniProt O96028).
T1 sequence (O96028 whole entry): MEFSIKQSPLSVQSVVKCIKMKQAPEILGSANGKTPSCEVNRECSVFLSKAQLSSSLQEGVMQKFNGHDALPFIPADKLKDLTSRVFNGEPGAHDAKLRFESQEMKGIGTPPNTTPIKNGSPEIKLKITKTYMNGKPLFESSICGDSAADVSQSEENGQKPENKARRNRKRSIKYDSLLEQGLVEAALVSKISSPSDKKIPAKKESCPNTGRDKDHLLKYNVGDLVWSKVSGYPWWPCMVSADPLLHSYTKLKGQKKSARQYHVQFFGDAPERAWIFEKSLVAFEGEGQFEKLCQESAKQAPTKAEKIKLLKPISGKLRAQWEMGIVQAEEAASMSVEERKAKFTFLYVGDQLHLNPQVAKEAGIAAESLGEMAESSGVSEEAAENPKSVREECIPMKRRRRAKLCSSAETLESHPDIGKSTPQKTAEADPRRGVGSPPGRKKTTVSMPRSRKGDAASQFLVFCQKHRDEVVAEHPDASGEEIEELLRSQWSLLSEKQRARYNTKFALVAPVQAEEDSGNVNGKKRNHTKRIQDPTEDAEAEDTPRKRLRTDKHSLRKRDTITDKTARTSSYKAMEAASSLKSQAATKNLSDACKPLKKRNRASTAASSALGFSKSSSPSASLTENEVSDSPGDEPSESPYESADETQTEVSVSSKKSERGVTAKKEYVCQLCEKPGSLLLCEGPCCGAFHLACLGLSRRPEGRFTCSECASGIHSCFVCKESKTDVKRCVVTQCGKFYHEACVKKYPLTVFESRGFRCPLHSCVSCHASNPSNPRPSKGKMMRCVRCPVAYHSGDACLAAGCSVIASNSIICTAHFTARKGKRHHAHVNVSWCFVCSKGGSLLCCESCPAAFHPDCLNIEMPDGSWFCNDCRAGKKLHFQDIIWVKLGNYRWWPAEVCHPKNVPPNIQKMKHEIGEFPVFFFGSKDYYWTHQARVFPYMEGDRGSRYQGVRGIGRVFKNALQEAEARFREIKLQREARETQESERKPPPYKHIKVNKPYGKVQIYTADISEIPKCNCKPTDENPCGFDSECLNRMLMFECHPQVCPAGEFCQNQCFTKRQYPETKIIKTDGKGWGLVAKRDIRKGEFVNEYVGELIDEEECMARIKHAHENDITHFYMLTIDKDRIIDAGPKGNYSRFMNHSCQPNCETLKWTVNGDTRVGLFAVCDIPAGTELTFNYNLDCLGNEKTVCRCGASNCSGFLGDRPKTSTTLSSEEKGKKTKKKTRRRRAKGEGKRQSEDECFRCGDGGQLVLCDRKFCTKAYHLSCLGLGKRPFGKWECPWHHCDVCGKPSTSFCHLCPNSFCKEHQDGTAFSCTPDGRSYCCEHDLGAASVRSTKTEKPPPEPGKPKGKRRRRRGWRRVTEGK
It counts as biochemical.

The target in test [12] is Lysine-specific demethylase 4C (Homo sapiens, UniProt Q9H3R0). The test can be described thus: GASC-1 (JMJD2C) histone demethylase inhibitors, dose response, biochemical, DELFIA europium, cherry-picked samples (AID 488835). It counts as functional.
Lysine-specific demethylase 4C, sequence (Q9H3R0 whole entry): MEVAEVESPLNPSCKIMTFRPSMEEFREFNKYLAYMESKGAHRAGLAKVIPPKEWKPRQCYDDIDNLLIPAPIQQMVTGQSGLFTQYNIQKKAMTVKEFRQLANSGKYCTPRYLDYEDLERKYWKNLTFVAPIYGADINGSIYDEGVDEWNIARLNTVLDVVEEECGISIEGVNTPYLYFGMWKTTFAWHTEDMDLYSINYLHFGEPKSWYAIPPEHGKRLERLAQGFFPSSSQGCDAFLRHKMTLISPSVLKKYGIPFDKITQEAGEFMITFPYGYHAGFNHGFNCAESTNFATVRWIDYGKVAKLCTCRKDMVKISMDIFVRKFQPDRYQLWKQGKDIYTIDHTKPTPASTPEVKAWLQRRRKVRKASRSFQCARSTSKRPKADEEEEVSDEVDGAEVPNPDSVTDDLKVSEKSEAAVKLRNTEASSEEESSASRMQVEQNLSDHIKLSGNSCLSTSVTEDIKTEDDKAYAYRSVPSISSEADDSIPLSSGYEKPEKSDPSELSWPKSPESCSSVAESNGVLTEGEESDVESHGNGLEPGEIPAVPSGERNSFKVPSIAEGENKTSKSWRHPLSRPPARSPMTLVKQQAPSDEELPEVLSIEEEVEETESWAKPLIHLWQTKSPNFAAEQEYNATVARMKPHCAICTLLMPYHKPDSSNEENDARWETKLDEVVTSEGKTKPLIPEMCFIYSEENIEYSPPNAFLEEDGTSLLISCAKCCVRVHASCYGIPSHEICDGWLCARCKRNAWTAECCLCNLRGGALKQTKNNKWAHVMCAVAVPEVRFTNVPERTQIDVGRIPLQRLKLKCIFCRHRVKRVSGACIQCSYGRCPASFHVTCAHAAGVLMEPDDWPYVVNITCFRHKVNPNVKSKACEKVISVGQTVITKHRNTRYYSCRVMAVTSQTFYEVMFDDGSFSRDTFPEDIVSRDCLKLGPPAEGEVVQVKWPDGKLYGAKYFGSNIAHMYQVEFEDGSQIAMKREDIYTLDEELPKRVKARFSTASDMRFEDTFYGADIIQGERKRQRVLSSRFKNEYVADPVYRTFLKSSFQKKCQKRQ
Test [13] has as its target T2, Apoptotic protease-activating factor 1 (Homo sapiens, UniProt O14727).
T2 sequence (O14727 whole entry): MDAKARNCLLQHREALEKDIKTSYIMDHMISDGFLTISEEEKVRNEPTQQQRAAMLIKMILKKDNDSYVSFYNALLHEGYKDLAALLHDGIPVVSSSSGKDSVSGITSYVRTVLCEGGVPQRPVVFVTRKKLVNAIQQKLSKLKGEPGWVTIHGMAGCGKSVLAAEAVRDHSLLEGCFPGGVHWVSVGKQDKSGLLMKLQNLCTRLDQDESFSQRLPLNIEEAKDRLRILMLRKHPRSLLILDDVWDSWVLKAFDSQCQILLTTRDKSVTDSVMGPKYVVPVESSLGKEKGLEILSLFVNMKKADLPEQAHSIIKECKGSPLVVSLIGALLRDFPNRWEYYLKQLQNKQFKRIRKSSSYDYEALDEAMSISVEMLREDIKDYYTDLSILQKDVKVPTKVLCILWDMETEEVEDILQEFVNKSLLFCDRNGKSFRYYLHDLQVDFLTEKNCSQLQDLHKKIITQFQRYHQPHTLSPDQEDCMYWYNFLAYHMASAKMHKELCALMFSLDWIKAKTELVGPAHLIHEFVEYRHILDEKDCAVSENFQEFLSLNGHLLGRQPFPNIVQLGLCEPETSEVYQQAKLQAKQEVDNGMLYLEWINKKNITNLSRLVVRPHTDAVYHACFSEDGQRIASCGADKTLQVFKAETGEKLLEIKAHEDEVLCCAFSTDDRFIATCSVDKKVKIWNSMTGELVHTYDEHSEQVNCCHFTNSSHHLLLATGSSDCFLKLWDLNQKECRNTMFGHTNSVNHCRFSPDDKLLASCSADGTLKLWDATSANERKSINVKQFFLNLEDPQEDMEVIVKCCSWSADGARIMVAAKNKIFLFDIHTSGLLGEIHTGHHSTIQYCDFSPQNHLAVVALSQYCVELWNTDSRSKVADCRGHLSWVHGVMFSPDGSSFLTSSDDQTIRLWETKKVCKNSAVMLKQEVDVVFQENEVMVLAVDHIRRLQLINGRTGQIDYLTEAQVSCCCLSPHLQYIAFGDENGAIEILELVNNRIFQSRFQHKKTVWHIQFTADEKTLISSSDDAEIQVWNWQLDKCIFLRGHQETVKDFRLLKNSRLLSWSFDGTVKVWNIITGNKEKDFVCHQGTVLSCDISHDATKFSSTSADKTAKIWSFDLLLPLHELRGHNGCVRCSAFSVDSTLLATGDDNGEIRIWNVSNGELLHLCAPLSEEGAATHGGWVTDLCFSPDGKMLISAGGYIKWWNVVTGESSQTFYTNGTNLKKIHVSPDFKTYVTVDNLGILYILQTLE
It counts as functional.

Test [14] addresses T3, Type-1 angiotensin II receptor (Homo sapiens, UniProt P30556).
T3 sequence (P30556 whole entry): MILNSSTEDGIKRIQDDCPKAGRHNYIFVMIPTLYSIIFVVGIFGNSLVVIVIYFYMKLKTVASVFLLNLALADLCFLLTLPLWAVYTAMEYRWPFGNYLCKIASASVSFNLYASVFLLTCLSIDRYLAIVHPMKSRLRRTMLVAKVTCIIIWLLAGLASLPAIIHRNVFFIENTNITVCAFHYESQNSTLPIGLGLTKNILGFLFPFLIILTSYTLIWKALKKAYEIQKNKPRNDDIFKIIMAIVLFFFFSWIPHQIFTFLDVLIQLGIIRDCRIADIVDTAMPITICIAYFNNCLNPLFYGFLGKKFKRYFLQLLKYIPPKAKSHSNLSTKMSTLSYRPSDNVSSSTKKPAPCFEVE
The test can be described thus: AT1 receptor antagonists, dose response, selectivity assay for APJ receptor antagonist project, cell-based, uHTS hits (AID 463214).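 Further: antagonist potency against angiotensin II stimulated AT1 response.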 It counts as functional.

The next test has as its target Beta-galactosidase (Escherichia coli, UniProt Q8VNN2). The test can be described thus: PubChem AID 485352. It counts as functional.

Latent membrane protein 1, sequence (P03230 whole entry): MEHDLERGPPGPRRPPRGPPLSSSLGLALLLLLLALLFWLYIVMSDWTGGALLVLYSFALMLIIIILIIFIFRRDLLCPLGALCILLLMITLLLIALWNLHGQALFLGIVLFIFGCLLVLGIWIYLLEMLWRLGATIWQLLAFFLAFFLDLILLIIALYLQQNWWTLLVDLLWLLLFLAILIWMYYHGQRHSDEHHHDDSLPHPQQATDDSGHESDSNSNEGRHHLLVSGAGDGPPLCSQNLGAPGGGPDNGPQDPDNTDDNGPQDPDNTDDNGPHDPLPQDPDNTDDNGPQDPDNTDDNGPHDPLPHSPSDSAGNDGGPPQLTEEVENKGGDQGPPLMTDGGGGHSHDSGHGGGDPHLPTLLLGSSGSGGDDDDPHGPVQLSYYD
Eukaryotic translation initiation factor 4E, sequence (P63073 whole entry): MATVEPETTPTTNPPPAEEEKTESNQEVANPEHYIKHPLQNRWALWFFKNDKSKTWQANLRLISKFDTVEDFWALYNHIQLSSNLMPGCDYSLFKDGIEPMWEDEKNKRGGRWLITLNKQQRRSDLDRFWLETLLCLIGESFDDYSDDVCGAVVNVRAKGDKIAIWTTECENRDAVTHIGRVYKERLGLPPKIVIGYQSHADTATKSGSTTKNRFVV
Beta-galactosidase, sequence (Q8VNN2 whole entry): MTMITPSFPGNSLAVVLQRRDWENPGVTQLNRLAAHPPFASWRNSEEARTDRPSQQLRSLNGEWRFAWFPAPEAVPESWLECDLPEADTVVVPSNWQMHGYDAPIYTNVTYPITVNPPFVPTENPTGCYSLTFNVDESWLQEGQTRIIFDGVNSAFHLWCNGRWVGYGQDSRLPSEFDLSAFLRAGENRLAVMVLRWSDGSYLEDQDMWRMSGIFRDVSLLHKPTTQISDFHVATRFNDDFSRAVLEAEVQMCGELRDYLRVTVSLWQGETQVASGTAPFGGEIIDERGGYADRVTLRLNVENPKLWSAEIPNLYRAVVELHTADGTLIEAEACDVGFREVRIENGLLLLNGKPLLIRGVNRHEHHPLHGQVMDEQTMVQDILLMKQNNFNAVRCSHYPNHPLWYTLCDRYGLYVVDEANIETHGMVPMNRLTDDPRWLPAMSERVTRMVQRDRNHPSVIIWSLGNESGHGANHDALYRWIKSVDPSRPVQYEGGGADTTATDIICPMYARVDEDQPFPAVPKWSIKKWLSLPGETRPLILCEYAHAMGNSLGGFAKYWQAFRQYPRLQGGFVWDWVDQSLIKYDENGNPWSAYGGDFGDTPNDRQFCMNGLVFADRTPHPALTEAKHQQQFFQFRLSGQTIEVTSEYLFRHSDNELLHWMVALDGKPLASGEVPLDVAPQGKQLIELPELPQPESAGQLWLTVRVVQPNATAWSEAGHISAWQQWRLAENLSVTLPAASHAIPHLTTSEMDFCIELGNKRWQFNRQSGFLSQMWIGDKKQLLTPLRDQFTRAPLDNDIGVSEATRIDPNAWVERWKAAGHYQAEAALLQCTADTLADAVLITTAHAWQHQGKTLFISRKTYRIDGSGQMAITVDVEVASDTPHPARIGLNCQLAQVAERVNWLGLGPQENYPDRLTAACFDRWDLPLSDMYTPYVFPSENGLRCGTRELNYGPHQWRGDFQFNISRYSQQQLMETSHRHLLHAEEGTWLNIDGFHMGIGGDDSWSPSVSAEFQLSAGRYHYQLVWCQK

With `CCCCC(=O)NC(c1ccc(OC)cc1)c1ccc2cccnc2c1O` (stereo not drawn), the AC50 in the test with HEK293 [1] is 15.8 µM (active); in test [2], 2.28 µM (active); in test [3] it was 11.6 µM (active); in [4], 8.8 µM (active); in test [6] it was 5.14 µM (active). Further, the IC50 in the test on Jurkat was 3.22 µM (active); in the test with HEK293 [5] it was 5.25 µM (active); in the test with HEK293 [7] it was 21.7 µM (inactive).
Turning to `Cn1cccc1-c1cc(C(=O)N2CCc3c([nH]c4ccccc34)C2c2ccccn2)[nH]n1` (stereo not drawn), the concentration at half-maximal activity (AC50) was 25.8 µM (active) in the test with HEK293 [1] and 21.6 µM (active) in [3]. Also, the IC50 in [8] was 50 µM (inactive). Besides, the results for the EC50 in test [9] and in test [10] were 2.76 µM (active) and 21.3 µM (active), respectively.
Regarding `C=CCN(CC=C)Cc1c(O)ccc2c1oc(=O)c1ccccc12`, the AC50 in test [11] is 4.02 µM (active); in [12], 480 nM (active). The IC50 was 60.3 µM (active) in test [13] and > 40 µM (not active) in [14]. Also, the EC50 at Beta-galactosidase is > 40 µM (inactive).
